The values below come from PubChem BioAssay (NCI).

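Assay format: 96-well plates, 48-hour exposure. TGI denotes the concentration required for complete inhibition of growth.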 Some results are limits rather than exact numbers.

Among the test systems are DLD-1 colon; HCC-2998 colon; LXFL 529 NSCLC; M19-MEL melanoma; OVCAR-4 ovarian; OVCAR-8 ovarian; SK-MEL-2 melanoma; SNB-75 CNS; SNB-78 CNS; HS 578T breast; MDA-MB-435; T-47D breast.
What all share (experiment): DTP human tumour cell line panel, 48 h

As to `COc1nc(NC2OC(COC(C)=O)C(OC(C)=O)C(OC(C)=O)C2OC(C)=O)c2c(OC(C)=O)cc(=O)oc2n1` (centres undefined), the TGI in the assay on DLD-1 colon, in the assay with HCC-2998 colon, with LXFL 529 NSCLC, in the assay with M19-MEL melanoma, in the assay with OVCAR-4 ovarian and with OVCAR-8 ovarian was above 100 µM in each case. The TGI with SK-MEL-2 melanoma, in the assay with SNB-75 CNS and in the assay on SNB-78 CNS was above 100 µM throughout.

With `CC(=O)O/N=C(/C)c1ccccc1O`, the TGI with DLD-1 colon, with HCC-2998 colon, in the assay on LXFL 529 NSCLC, in the assay on M19-MEL melanoma, with OVCAR-4 ovarian and in the assay with OVCAR-8 ovarian was above 100 µM each time. Besides, the TGI in the assay on SK-MEL-2 melanoma, in the assay with SNB-75 CNS and with SNB-78 CNS was above 100 µM throughout.

As to `CC(C)(C)c1cc2c(O)c3cccc4c(=O)c5cccc6c5-c(c34)c2c(c1)c6=O`, the TGI in the assay with DLD-1 colon is above 100 µM; in the assay with HCC-2998 colon, 0.0657 µM; in the assay on LXFL 529 NSCLC, above 100 µM; in the assay with M19-MEL melanoma it was above 100 µM; with OVCAR-4 ovarian it was above 100 µM; with OVCAR-8 ovarian it was above 100 µM. Moreover, the TGI in the assay on SK-MEL-2 melanoma and in the assay on SNB-75 CNS was above 100 µM throughout.

Regarding `C=C(C)CCOC(c1ccccc1)(c1ccccc1)c1ccccc1`, the TGI in the assay with DLD-1 colon, with HCC-2998 colon, with LXFL 529 NSCLC, with M19-MEL melanoma, with OVCAR-4 ovarian and in the assay with OVCAR-8 ovarian was above 100 µM each time. Further, the TGI in the assay on SNB-75 CNS and in the assay on SNB-78 CNS was above 100 µM each time.

As for `CCCCN(CCCC)C(=O)C(=O)C(C(=O)c1ccc(OC)cc1)c1ccc(OC)cc1` (centres undefined), the TGI with DLD-1 colon, in the assay on HCC-2998 colon, in the assay on LXFL 529 NSCLC, in the assay with OVCAR-4 ovarian, with OVCAR-8 ovarian and in the assay with SK-MEL-2 melanoma was above 100 µM throughout. Besides, the TGI with SNB-78 CNS is above 100 µM.

Turning to `Cc1ccc(/C=C/C(=O)CCN(C)C)cc1`, the TGI with DLD-1 colon came out at 33.7 µM; in the assay with HCC-2998 colon, 32.1 µM; with LXFL 529 NSCLC it was 34.2 µM; in the assay on M19-MEL melanoma, 38.7 µM; in the assay with OVCAR-4 ovarian, 30.4 µM; in the assay with OVCAR-8 ovarian it was 62.2 µM. The TGI in the assay on SNB-75 CNS worked out at 35.1 µM; in the assay on SNB-78 CNS it was 87 µM.

In the case of `COc1ccc(C)cc1-c1cc(Sc2ccccc2)c(-c2cc(C)ccc2OC)o1`, the TGI in the assay with DLD-1 colon, in the assay on HCC-2998 colon, in the assay on LXFL 529 NSCLC, with M19-MEL melanoma, in the assay on OVCAR-4 ovarian and with OVCAR-8 ovarian was above 31.6 µM throughout. Moreover, the TGI with SNB-75 CNS and in the assay on SNB-78 CNS was above 31.6 µM throughout.

As to `C/C(CCn1[nH]c(=O)ccc1=O)=N\NC(=O)C(=O)NN`, the TGI in the assay on DLD-1 colon, in the assay on HCC-2998 colon, in the assay on LXFL 529 NSCLC, in the assay on M19-MEL melanoma, in the assay with OVCAR-4 ovarian and in the assay with OVCAR-8 ovarian was above 100 µM in each case. Also, in the assay on SK-MEL-2 melanoma, the TGI is above 100 µM.

As for `CN(C)CCn1c2c3ccccc3ccc2c2oc(=O)c3ccccc3c21`, the TGI is above 100 µM with DLD-1 colon; 17.2 µM in the assay on LXFL 529 NSCLC; 25 µM with M19-MEL melanoma; 28.1 µM with OVCAR-4 ovarian; 35 µM in the assay on SK-MEL-2 melanoma; 9.94 µM with SNB-75 CNS. In addition, the TGI with SNB-78 CNS amounted to 48.1 µM.

In the case of `c1ccc(NCn2cnc3ccccc32)cc1`, the TGI in the assay on DLD-1 colon, with LXFL 529 NSCLC, with M19-MEL melanoma, in the assay on OVCAR-4 ovarian, in the assay on OVCAR-8 ovarian and in the assay with SK-MEL-2 melanoma was above 100 µM throughout. The TGI in the assay on SNB-75 CNS and with SNB-78 CNS was above 100 µM in each case.

As to `O=C1C=CC(=O)c2nc3c(cc21)CCC3`, the TGI in the assay with DLD-1 colon was 36 µM; in the assay on HCC-2998 colon, above 100 µM; in the assay with LXFL 529 NSCLC, 29 µM; in the assay on M19-MEL melanoma, 31.2 µM; in the assay with OVCAR-4 ovarian it was 29.7 µM; in the assay with OVCAR-8 ovarian it was 28.8 µM. The TGI with SNB-75 CNS is above 100 µM; with SNB-78 CNS, 42 µM.

Turning to `C=CC[C@H](C[C@H](C[C@H](C[C@H](C[C@H](C[C@H](C[C@H](C[C@H](C[C@H](C[C@H](CCCCC)OC)OC)OC)OC)OC)OC)OC)OC)OC)OC`, the TGI in the assay on DLD-1 colon, with HCC-2998 colon, with M19-MEL melanoma, in the assay with OVCAR-4 ovarian, in the assay with OVCAR-8 ovarian and in the assay on SK-MEL-2 melanoma was above 100 µM each time. Also, the TGI in the assay with SNB-75 CNS and with SNB-78 CNS was above 100 µM throughout.

Regarding `O=C(/C=C/c1ccc(O)cc1)c1ccc(O)cc1`, the TGI in the assay on DLD-1 colon is 36.9 µM; in the assay on HCC-2998 colon, 52.7 µM; in the assay with HS 578T breast, above 67.5 µM; in the assay with M19-MEL melanoma it was 42.2 µM; in the assay with MDA-MB-435, above 100 µM; in the assay on OVCAR-4 ovarian it was above 100 µM. Further, the TGI was 41.6 µM in the assay on OVCAR-8 ovarian; 50 µM in the assay on SK-MEL-2 melanoma; 51.7 µM in the assay with SNB-75 CNS; above 100 µM in the assay with SNB-78 CNS; above 100 µM in the assay on T-47D breast.

In the case of `Cc1ccc(/C=C/C(=O)c2cccc3ccccc23)cc1`, the TGI was 37.7 µM in the assay with HCC-2998 colon; 25.3 µM with LXFL 529 NSCLC; 49.9 µM with M19-MEL melanoma; 28 µM in the assay with OVCAR-4 ovarian; 29 µM with OVCAR-8 ovarian; 32.6 µM in the assay on SK-MEL-2 melanoma. Moreover, the TGI with SNB-75 CNS was 34.6 µM; in the assay with SNB-78 CNS, 31.4 µM.

As for `C/C(=C\CBr)CCC(Br)C(C)(C)Br` (centres undefined), the TGI with HCC-2998 colon, in the assay with HS 578T breast, with MDA-MB-435, in the assay on OVCAR-4 ovarian, in the assay on OVCAR-8 ovarian and with SK-MEL-2 melanoma was above 100 µM each time. Also, the TGI in the assay with SNB-75 CNS and in the assay on T-47D breast was above 100 µM in each case.

As for `CC(=O)NNc1nc(C)c(C(=O)/C=C/c2ccc(NC(C)=O)cc2)s1`, the TGI with DLD-1 colon, with HCC-2998 colon, in the assay on M19-MEL melanoma, in the assay with OVCAR-8 ovarian, in the assay on SK-MEL-2 melanoma and in the assay with SNB-75 CNS was above 100 µM each time. The same compound yielded a TGI with SNB-78 CNS above 100 µM.

Usually TGI stands for the concentration at which net growth stops. Higher therefore signals lower sensitivity of the cells.
